The values that follow come from patent US11390617B2, “Methods of treating non-Hodgkin lymphoma using 2-(2,6-dioxopiperidin-3-yl)-4-((2-fluoro-4-((3-morpholinoazetidin-1-yl)methyl)benzyl)amino)isoindoline-1,3-dione” (Celgene Corporation, priority 2019, dated 2022).

Bounds are passed on as bounds.

Test [1] concerns SU-DHL-4 cell line. The test is described as follows: Cell proliferation and viability assay using SU-DHL-4 cell line (Cell Titer-Glo). It is filed as cell-based. Conditions: Homo sapiens, SU-DHL-4, 120 hours. As for the experimental part:
The following exemplary assay uses a DLBCL cell line, for example, the SU-DHL-4 cell line (Deutsche Sammlung von Mikroorganismen und Zellkulturen GmbH [DSMZ]: catalogue number ACC-495) at 120 hours post-treatment. The seeding density for SU-DHL-4 can be optimized to ensure assay linearity in 1536-well plates.
Increasing concentrations (0.5 nM to […]) of Compounds 1, 2, and 3 were each spotted in a 20-point dilution fashion (unevenly spaced data points) via an acoustic dispenser (EDC ATS-100) into an empty 1536-well plate. The DMSO concentration was kept constant for a final assay concentration of 0.1% DMSO. Prior to testing, SU-DHL-4 cells were grown in RPMI-1640 (Roswell Park Memorial Institute-1640) medium with 10% FBS (fetal bovine serum: HyClone) and expanded in culture flasks to provide sufficient amounts of starting material. Cells were then diluted to 500 cells per well in a 5 μL volume, and added directly to the compound-spotted 1536-well plates. Cells were allowed to grow for 120 hours in 5% CO2 at 37° C. At the time when exposure of cells to compound began (t0), initial viable cell number was assessed via Cell Titer-Glo® Luminescent Cell Viability Assay at a 1 vol: 2 vol ratio according to manufacturer's instructions (Promega Corporation, Madison, Wis.) by quantifying the level of luminescence generated by adenosine-5′-triphosphate (ATP) present in viable cells. After 120 hours, cell viability of the treated cells was assessed via Cell Titer-Glo© and read for luminescence. All growth inhibition curves were processed and evaluated using Activity Base (IDBS, Alameda, Calif.). Cell viability IC50 values were calculated using a four parameter logistic model (sigmoidal dose-response model): y=(A+((B−A)/(1+((C/x)^D)))) wherein: A=YMin B=YMax C=EC50 D=Hill slope IC50=the concentration of the compound when Y=50% of DMSO control Y=cell viability measured as luminescence unit, and x=concentration of compound.
(In general: Cellular ATP, detected with luciferase, serves as a proxy for viable cell number.)

For test [2], the system named is OCI-LY10-Luc CNS DLBCL xenograft. The test is described as follows: OCI-LY10-Luc CNS lymphoma xenograft model (intracranial). It is filed as in vivo, Nude (nu/nu) mice. Particulars: 30 mg/kg QD oral, 3 weeks. As for the experimental part:
Antitumor activity of Compound 1 was evaluated as a single agent in OCI-LY10-luc diffuse large B-cell lymphoma (DLBCL) xenografted intracranially into nude mice as a model for central nervous system (CNS) lymphoma.
CNS lymphoma study was conducted with OCI-LY-10 cells transfected with luciferase (OCI-LY-10-Luc). Nude (nu/nu) mice were inoculated intracranially into the right cerebral hemisphere of the brain with OCI-LY10-Luc cells. Following inoculation of animals, the tumors were allowed to grow for 5 days. On day 5 following tumor cell inoculation, the mice were imaged using IVIS100 imaging system. The mice having tumors with an average flux ranging between 1×10^7 and 2×10^7 photons/sec were pooled together and randomized into various treatment groups. Compound 1 was formulated in 0.5% Methyl Cellulose, 0.25% Tween 80 and 50 mM Citrate pH 3 (MCT) in water. The animals were orally administered vehicle (MCT) or Compound 1 once daily (QD) for 3 weeks. Doses of Compound 1 ranged between 3 and 30 mg/kg. The positive control pomalidomide (30 mg/kg, QD) formulated in aqueous 0.5% CMC and 0.25% Tween-80 was administered PO. The animals were imaged for bioluminescence once a week using IVIS100 imaging system and monitored for survival. Statistical analysis was performed using a log-rank test between Compound 1-treated and vehicle-treated control groups.

Test [3] concerns WSU-DLCL2 DLBCL xenograft tumors. The test is described as follows: WSU-DLCL2 (DLBCL) xenograft model. Type of test: in vivo, female SCID mice. Conditions: rituximab 10 mg/kg intraperitoneally BIW, single agent. Here is the method: (§1) Female 6- to 8-weeks-old CB17 SCID mice were obtained from Charles River Laboratories. Mice were housed in a barrier facility in micro-isolator cages at 10 animals per cage. Mice were fed with Harlan-Teklad LM-485 Mouse/Rat Sterilizable Diet and autoclaved water ad libitum and maintained on a 12 hours light-dark cycle. Animals were acclimatized to the animal housing facility for a period of 7 days before the beginning of the experiment. All animal studies were performed under protocols approved by Institutional Animal Care and Use Committees.
Suspensions of Compound 1 were pared in aqueous 0.5% Methyl Cellulose, 0.25% Tween 80 and 50 mM Citrate pH 3. The formulations were homogenized using a Teflon pestle and mortar (Potter-Elvehjem tissue grinder). For multiday studies, the compound was freshly formulated every day. Compound 1 and vehicle were administered by oral gavage. Rituximab was diluted in 0.9% saline and administered intraperitoneally.
Tumor cells were injected subcutaneously in the flank region above the right hind legs of female CB17 SCID mice. When the tumor volumes reach to approximately 200 mm^3, mice bearing tumors of 150-300 mm^3 were randomly assigned to receive oral doses of vehicle, Compound 1, rituximab or combination of Compound 1 (5 days on and 2 days off for 3 weeks) and rituximab (twice a week) for the duration of the study. Tumor volumes were determined before the initiation of treatment and were considered as the starting volumes. Tumors were measured twice a week for the duration of the study. The long and short axes of each tumor were measured using a digital caliper in millimeters. The tumor volumes were calculated using the formula: width^2×length/2. The tumor volumes were expressed in cubic millimeters (mm^3).
Xenograft data are expressed as mean±SEM. Statistical analyses were performed using GraphPad Prism. […]
Xenograft study was conducted with female SCID mice bearing WSU-DLCL2 DLBCL xenograft tumors. […] Tumors were measured twice a week using calipers and tumor volumes were calculated using the formula of W^2×L/2. […]

In test [4] the test system is RL follicular lymphoma xenograft tumors. The test is described as follows: RL (follicular lymphoma) xenograft model, alone and in combination with rituximab. Conditions: rituximab 25 mg/kg intraperitoneally BIW, single agent. It is filed as in vivo, female SCID mice. Here is the method:
as §1
(§2) Suspensions of Compound 1 were pared in aqueous 0.5% Methyl Cellulose, 0.25% Tween 80 and 50 mM Citrate pH 3. […]
(§3) Tumor cells were injected subcutaneously in the flank region above the right hind legs of female CB17 SCID mice. […] Tumor volumes were determined before the initiation of treatment and were considered as the starting volumes. Tumors were measured twice a week for the duration of the study. The long and short axes of each tumor were measured using a digital caliper in millimeters. The tumor volumes were calculated using the formula: width^2×length/2. […]
(§4) Xenograft data are expressed as mean±SEM. […]
Xenograft study was conducted with female SCID mice bearing RL follicular lymphoma xenograft tumors. […] Tumors were measured twice a week using calipers and tumor volumes were calculated using the formula of W^2×L/2. […]

Test [5] concerns SUDHL-6 DLBCL xenograft tumors. The test is described as follows: SUDHL-6 (DLBCL) xenograft model. Type of test: in vivo, female SCID mice. Conditions: rituximab 10 mg/kg intraperitoneally BIW, single agent. As for the experimental part: as §1, §2, §3, §4
Xenograft study was conducted with female SCID mice bearing SUDHL-6 DLBCL xenograft tumors. […] Tumors were measured twice a week using calipers and tumor volumes were calculated using the formula of W^2×L/2. […]

For orientation: IC50 means the midpoint of a concentration-inhibition curve. A low value points to inhibition by little substance. In test [1], `O=C1CCC(N2C(=O)c3cccc(NCc4ccc(CN5CC(N6CCOCC6)C5)cc4F)c3C2=O)C(=O)N1` (stereo not shown) [Compound 3, 2-(2,6-dioxopiperidin-3-yl)-4-((2-fluoro-4-((3-morpholinoazetidin-1-yl)methyl)benzyl)amino)isoindoline-1,3-dione] yielded a 50% inhibitory concentration (IC50) of less than 200 nM. Take `Nc1cccc2c1C(=O)N(C1CCC(=O)NC1=O)C2=O` (stereo not shown) [Pomalidomide, reference compound]: in test [2] (relative to vehicle control), the “% BLI Inhibition on Day 26” value stood at 68.8%. The “Median Survival” value in test [2] (vehicle 35 days) turned out to be 50 days. For `O=C1CC[C@@H](N2C(=O)c3cccc(NCc4ccc(CN5CC(N6CCOCC6)C5)cc4F)c3C2=O)C(=O)N1` [Compound 2, (R)-2-(2,6-dioxopiperidin-3-yl)-4-((2-fluoro-4-((3-morpholinoazetidin-1-yl)methyl)benzyl)amino)isoindoline-1,3-dione], the IC50 in test [1] was less than 200 nM. Take Rituximab [reference compound]: the tumor volume reduction in test [3] is on record as 66%; in test [4], 56%; in test [5], 54%.
